Experimental data taken from patent US20240139153A1, “Inhibition of Endothelial ETS Family Transcription Factors Promotes Flow-Dependent Ocular Vessel Regression” (Oklahoma Medical Research Foundation, priority 2020, published 2024).

Key:
[1] = tested on: 3D HUVEC cultures; test: Vasculogenic 3D collagen assay, regression of 3D lumenized HUVEC cultures; format: cell-based, Human
Protocol: Vasculogenic 3D collagen assays. Human Umbilical Vein ECs were purchased from Lonza and used from passages 3 to 6 as previously described^42,43. ECs were suspended in 2.5 mg/mL collagen type I matrices, and assays were performed as described^42,43. With the exception that the culture media contained reduced serum supplement (RSII), ascorbic acid, FGF-2, Stem cell factor (SCF) at 40 ng/ml and interleukin-3 (IL-3) were added at 40 ng/ml. Stromal-derived factor-1α (SDF-1α) was added at 200 ng/ml into collagen type I matrices. Cultures were incubated at 37° C. in serum-free defined media and allowed to assemble over time. Cultures were fixed at 72 hr with 3% glutaraldehyde before staining with 0.1% toluidine blue in 30% methanol for nonfluorescent visualization. Lumen area was quantified by using Metamorph software as previously described^42,43. Individual data points were obtained from a triplicate wells and a minimum of 12 independent fields from these wells.
Bioassays with pharmacologic agents and cytokines. […] In some assays, triplicate wells were lysed with sample buffer and Western blots were performed to probe for pro-caspase 3 and actin.
YK-4-279 promotes flow-dependent vascular regression in vitro. […] Importantly, this culture model recapitulates many aspects of in vivo vessel morphology and has previously been used to model vascular regression^40.

[2] = tested on: retinal neovessels; conditions: OIR mice
From the text: OIR Studies/Quantification. […] Generally, pups with their dams were maintained in room air from birth until P7. From P7 to P12 pups were exposed to 75% O2 in an oxygen chamber regulated by an OxyCycler Model A84. After 2.5 d of oxygen exposure, the dams were replaced with healthy lactating dams to prevent oxygen toxicity. At P12 pups were returned to room air until P18.
Two days after the injection, P20 mice were euthanized and retinas were dissected and immunostained for CD31 to quantify retinal vascular area as previously described^45.

[3] = tested on: hyaloid vessels; test: Hyaloid vessel regression after intravitreal injection; format: in vivo, mice; conditions: intravitreal injection at P5, assessed at P7, versus vehicle-injected littermate controls; final concentration ~10 μmol/L in vitreous
Protocol: Hyaloid Dissection and Quantification. Hyaloid were dissected and quantified as described previously. Briefly, eyes were enucleated from P4-P8 mice and fixed for 30 min in 4% paraformaldehyde (PFA). The eyes were then transferred to PBS and dissected by removal of the lens and sclera leaving the retinal cup in which the hyaloids were loosely wrapped around the lens. The lens was then carefully removed from which the hyaloids were gently removed. The hyaloids were then transferred in a drop of PBS and flat mounted for imaging by carefully removing the remaining PBS.
Quantification of hyaloid regression was accomplished by drawing an outline of hyaloid flat mounts (labeled with Isolectin-B4) which was then decreased in size by 50% and centered over the hyaloid flat mount. Blind counts of hyaloid vessel number were performed by counting the number of vessels which crossed the 50% outline.
Hyperthermia-induced anesthesia of wild type P5 mice was accomplished by submerging pups in ice for 5-8 min after placing them in a latex blanket wrapped in foil to avoid direct contact between the pup and ice. Once anesthetized (assessed by toe pinch) eyes were administered a drop of proparacaine hydrochloride ophthalmic solution (Akorn), followed by gentle exposure of the eye globe. […] Eyelids were then reclosed around the eye, and erythromycin ophthalmic ointment (Akorn) was applied. […]

[4] = tested on: HUVECs; test: HUVEC flow chamber study, static versus flow; format: cell-based, Human
Protocol: Cell Culture/Flow Studies. Flow-based cell culture was performed using HUVECs (ATCC; #PCS-100-010) cultured in complete EGM-2 media (Lonza). HUVECs were cultured on Ibidi Luer^0,6 flow slides and allowed to grow at 37° C. in 5% CO2 for 24 h to a confluency of 80-90%. Slides were then attached to an Ibidi pump system with Perfusion Set Red (1.6 mm, #10962) and exposed to a sheer stress of 10 dyn/cm^2 for 24 h. Static conditions were achieved by similarly plating HUVECs in flow slides that were not exposed to flow. […] Cells were gently washed with 1 mL ice-cold PBS, then fixed and permeabilized by incubation with ice-cold methanol for 5 min. Fixed cells were treated with 1% BSA, 0.02% Triton X-100 for 1 hr at room temperature. Primary and secondary antibodies were added in 1% BSA and incubated for 2 hr at room temperature.
HUVECs grown in this 3D culture model form vascular lumens despite the absence of blood flow. […] This possibility is supported by a recent report that the transcriptional consequences of ERG inhibition are greatly mitigated in ECs exposed to sheer stress^58.

[5] = tested on: healthy retinal vessels; test: Healthy retinal vessels of adult wild type mice after intravitreal injection; format: in vivo; conditions: 48 hr after intraocular injection
From the text: Vascular length (FIG. 8B; n=4) and branch points (FIG. 8C; n=4) from retinas treated as in (FIG. 8A) were quantified using AutoTube and normalized to retinal area per image. NS=not significant (two-tailed Student's t-test). Error bars=S.D.

[6] = tested on: ROP; conditions: intravitreal injection, randomized study; cited from earlier work
[7] = inhibitor-injected eye relative to control eye

Compound	concentrations giving significant, dose-dependent loss of vascular luminal area ([1]; 3D HUVEC cultures, 48 h treatment, toluidine blue stain)	pro-caspase 3 signal (Western blot) ([1]; 3D HUVEC cultures, FIG. 5C)	extent of vascular regression (3D HUVEC lumen area) on co-incubation with cytokines ([1]; co-incubation of TNFα or IL1β with YK-4-279, versus YK-4-279 alone)	mice showing an increase in neovessels [2, 7]	mice with a decrease in retinal neovascular area [2, 7]	decrease in the retinal avascular area ([2]; intravitreal injection at P18, analysed at P20, versus vehicle) [%]	reduction in retinal neovascular area ([2]; intravitreal injection at P18, analysed at P20, versus vehicle-injected contralateral eye) [%]	reduction in hyaloid vessel number [3] [%]	active caspase-3 staining ([4]; flow conditions, 10 dyn/cm^2)	alignment of HUVECs in the direction of flow ([4]; flow conditions, 10 dyn/cm^2)	cell number ([4]; flow conditions, 10 dyn/cm^2)	active caspase-3 staining ([4]; static conditions, 5 μM, 24 hr)	cell number ([4]; static conditions, 5 μM, 24 hr)	effects on retinal vascularization (vascular length, branch points) [5]	efficacy versus conventional laser-based therapy for treating ROP [6]
COc1ccc(C(=O)CC2(O)C(=O)Nc3c(Cl)ccc(Cl)c32)cc1 (stereo not drawn) [YK-4-279]	greater than 1.25 μM	Reduced pro-caspase 3 signal	further increases the extent of vascular regression	one	9 out of 11	~60	~40	~40	no apparent effect	inhibited the alignment	no apparent effect	increased active caspase-3 staining	significantly reduced cell numbers	no effects	
bevacizumab: a monoclonal VEGF-A antibody															more effective
